In ChEMBL document CHEMBL1129948, “Synthesis and anti-trypanosomal activity of various 8-aza-7-deaza-5'noraristeromycin derivatives” (J Med Chem, 1997):
The source made the active and inactive calls. No cut-off for these calls is given here.

How the values were obtained:
[1] = test system: E6SM; test: Cytotoxic activity of compound against E6SM cell line; No toxicity; format: functional, cell-based; settings: Homo sapiens
[2] = test system: HEL; test: Cytotoxic activity of compound against HEL cell line; No toxicity; format: functional, cell-based; settings: Homo sapiens
[3] = test system: HeLa; test: Cytotoxic activity of compound against HeLa cell line; No toxicity; format: functional, cell-based; settings: Homo sapiens
[4] = test system: Trypanosoma brucei; test: (§1) Inhibition of growth of Trypanosoma uM); format: functional, organism-based
[5] = test system: Trypanosoma brucei; test: as §1; format: functional, organism-based; remark: listed apart in the source
[6] = test system: Vero; test: Cytotoxic activity of compound against Vero cell line; No toxicity; format: functional, cell-based; settings: Chlorocebus sabaeus
[7] = test system: Trypanosoma brucei; test: as §1; format: functional, organism-based; remark: listed apart in the source
[8] = test system: Trypanosoma brucei; test: as §1; format: functional, organism-based; remark: listed apart in the source
[9] = test system: Trypanosoma brucei; test: (§2) Inhibition of growth of Trypanosoma uM concentration; format: functional, organism-based
[10] = test system: Trypanosoma brucei; test: as §2; format: functional, organism-based; remark: listed apart in the source
[11] = test system: Trypanosoma brucei; test: as §2; format: functional, organism-based; remark: listed apart in the source
[12] = test system: Trypanosoma brucei; test: as §2; format: functional, organism-based; remark: listed apart in the source
[13] = test system: Trypanosoma brucei; test: as §2; format: functional
[14] = test system: Trypanosoma brucei; test: as §2; format: functional; remark: listed apart in the source

IC50 [4] | IC50 [5] | IC50 [7] | IC50 [8] | IC50 [9] | IC50 [10] | IC50 [11] | IC50 [12] | SMILES | Cytotoxic activity [1] | Cytotoxic activity [2] | Cytotoxic activity [3] | Cytotoxic activity [6] | Inhibition [13] | Inhibition [14]
> 100 µM | > 100 µM | – | – | – | – | – | – | Nc1ncnc2c1cnn2[C@@H]1C=C[C@H](O)C1 | No toxicity | No toxicity | No toxicity | No toxicity | – | –
> 100 µM | > 100 µM | > 100 µM | > 100 µM | – | – | – | – | Nc1ncnc2c1cnn2[C@@H]1C=C[C@@H](O)[C@H]1O | No toxicity | No toxicity | No toxicity | No toxicity | – | –
– | – | – | – | > 100 µM | > 100 µM | – | – | Nc1ncnc2c1cnn2[C@H]1C=C[C@H](O)[C@@H]1O | No toxicity | No toxicity | No toxicity | No toxicity | – | –
> 100 µM | > 100 µM | > 100 µM | > 100 µM | – | – | – | – | Nc1ncnc2c1cnn2[C@@H]1CC[C@@H](O)[C@H]1O | No toxicity | No toxicity | No toxicity | No toxicity | – | –
> 100 µM | > 100 µM | > 100 µM | > 100 µM | – | – | – | – | C[C@@H]1C[C@H](n2ncc3c(N)ncnc32)[C@@H](O)[C@H]1O | No toxicity | No toxicity | No toxicity | No toxicity | – | –
– | – | – | – | 0.85 µM | – | 5.3 µM | 1.55 µM | Nc1ncnc2c1ccn2[C@H]1C[C@@H](O)[C@H](O)[C@@H]1O | inactive | inactive | Non-toxic | inactive | – | –
> 100 µM | > 100 µM | – | – | – | – | – | – | Nc1ncnc2c1cnn2[C@@H]1C[C@H](O)[C@@H](O)[C@H]1O | No toxicity | No toxicity | No toxicity | No toxicity | – | –
– | – | – | – | – | – | – | – | Nc1ncnc2c1cnn2[C@H]1CC[C@H](O)[C@@H]1O | No toxicity | No toxicity | No toxicity | No toxicity | 23% | 37%
> 100 µM | > 100 µM | > 100 µM | > 100 µM | – | – | – | – | Nc1ncnc2c1cnn2[C@H]1C=C[C@@H](O)C1 | No toxicity | No toxicity | No toxicity | No toxicity | – | –
– | – | – | – | 53 µM | 44 µM | 72 µM | 67 µM | Nc1ncnc2c1cnn2[C@H]1C[C@@H](O)[C@H](O)[C@@H]1O | No toxicity | No toxicity | No toxicity | No toxicity | – | –
– | – | – | – | 12.2 µM | 16.8 µM | – | 14 µM | C[C@H]1C[C@@H](n2ncc3c(N)ncnc32)[C@H](O)[C@@H]1O | No toxicity | No toxicity | No toxicity | No toxicity | – | –
